Assay [1] concerns E. coli 25922. In words: MIC assay, liquid medium microdilution (planktonic growth). It counts as cell-based, Escherichia coli. As to the method:
(§1) The antibacterial assays were performed on Gram-negative (Escherichia coli ATCC 25922, E. coli 5, Pseudomonas aeruginosa ATCC 27853, P. aeruginosa ATCC 9027) and Gram-positive (Staphylococcus aureus ATCC 25923, S. aureus ATCC 6538, MRSA (Meticillin-resistant S. aureus) 388, ATCC, American Type Culture Collection) bacterial strains. Microbial suspensions (1.5 × 10^8 CFU/mL; colony forming units (CFU)) corresponding to 0.5 McFarland density obtained from 15 to 18-h bacterial cultures developed on solid media were used. The antimicrobial activity was tested on Mueller–Hinton agar medium.
(§2) The quantitative assay of the antimicrobial activity was performed by the liquid medium microdilution method, in 96-well multi-well plates, to establish the minimal inhibitory concentration (MIC). For this purpose, serial two-fold dilutions of the compounds ranging between 1.000 and 1.95 μg/mL were performed in a 200 μL volume of broth and each well was seeded with 50 μL microbial inoculums. Sterility control (wells containing only culture medium) and culture controls (wells containing culture medium seeded with the microbial inoculum) were used. The influence of the DMSO solvent was also quantified in a series of wells containing DMSO, diluted accordingly with the dilution scheme used for the complexes. The plates were incubated for 24 h at 37 °C, and MIC values were considered as the lowest concentration of the tested compound that inhibited the visible growth of the microbial overnight cultures.
In general terms: Dilution methods test growth across graded concentrations, often in twofold steps.

Assay [2] relates to E. coli 5 ESBL. Described as above. In kind it is cell-based, Escherichia coli. As to the method:
as §1, §2

The subject of assay [3] is P. aeruginosa 27853. The description is as above. It counts as cell-based, Pseudomonas aeruginosa. As to the method: as §1, §2
The test system of assay [4] is P. aeruginosa 9027. The description is as above. In kind it is cell-based, Pseudomonas aeruginosa. As to the method:
as §1, §2

The test system of assay [5] is MRSA. Described as above. It counts as cell-based, Staphylococcus aureus. As to the method:
as §1, §2

The test system of assay [6] is S. aureus 25923. The assay is described as above. In kind it is cell-based, Staphylococcus aureus. As to the method:
as §1, §2

Assay [7] concerns S. aureus 6538. Described as above. In kind it is cell-based, Staphylococcus aureus. As to the method:
as §1, §2

Assay [8] deals with E. coli 25922. In words: MBEC assay, micro-titer method (biofilm). In kind it is cell-based, Escherichia coli. As to the method: as §1
(§3) The assessment of the complexes’ influence on the microbial ability to colonize an inert substratum with the establishment of the minimal biofilm eradication concentration (MBEC) was performed by the micro-titer method, following previously described protocols. The absorbance at 490 nm was measured with an Apollo LB 911ELISA (Berthold Technologies GmbH & Co. KG, Waltham, MA, USA) reader. All experiments were performed in triplicates.

Assay [9] concerns E. coli 5 ESBL. In words: MBEC assay, micro-titer method (biofilm). In kind it is cell-based, Escherichia coli. As to the method:
as §1, §3

Assay [10] concerns P. aeruginosa 27853. In words: MBEC assay, micro-titer method (biofilm). In kind it is cell-based, Pseudomonas aeruginosa. As to the method:
as §1, §3

The test system of assay [11] is P. aeruginosa 9027. In words: MBEC assay, micro-titer method (biofilm). It counts as cell-based, Pseudomonas aeruginosa. As to the method: as §1, §3
Assay [12] relates to MRSA. The assay can be described thus: MBEC assay, micro-titer method (biofilm). In kind it is cell-based, Staphylococcus aureus. As to the method: as §1, §3
The test system of assay [13] is S. aureus 25923. The assay can be described thus: MBEC assay, micro-titer method (biofilm). In kind it is cell-based, Staphylococcus aureus. As to the method: as §1, §3
The test system of assay [14] is S. aureus 6538. The assay can be described thus: MBEC assay, micro-titer method (biofilm). In kind it is cell-based, Staphylococcus aureus. As to the method: as §1, §3
Assay [15] concerns human colon adenocarcinoma (HT 29) cell. Set-up: method as in doi:10.1007/s10973-016-5425-7. The settings on record: cited from earlier work.
Where [16] appears, read: P. aeruginosa 27853, 24 h at 37 °C.
[17] abbreviates: P. aeruginosa 9027 (multi-drug-resistant), 24 h at 37 °C.

Converted amounts (≈) assume the structure as drawn. Like-named read-outs stand apart in the source and are kept apart here.

Broadly, the MIC is the lowest concentration found to suppress growth.

For the compound `O.[Cu+2].[O-][Cl+3]([O-])([O-])[O-].[O-][Cl+3]([O-])([O-])[O-].c1cnc2c(c1)ccc1cccnc12.c1cnc2c(c1)ccc1cccnc12` [CuPP, [Cu(phen)2(OH2)](ClO4)2], the MIC against E. coli 25922 [1] (E. coli 25922, 24 h at 37 °C) amounted to 0.03 mM; against E. coli 5 ESBL [2] (E. coli 5 ESBL, 24 h at 37 °C), 0.03 mM; against P. aeruginosa 27853 [3] (setting [16]), 0.50 mM; against P. aeruginosa 9027 [4] (setting [17]) it was 0.50 mM; in the assay with MRSA [5] (24 h at 37 °C), 0.12 mM; with S. aureus 25923 [6] (S. aureus 25923, 24 h at 37 °C), 0.03 mM. In addition, in the assay with S. aureus 6538 [7] (S. aureus 6538, 24 h at 37 °C), the MIC came to 0.03 mM. In addition, the MBEC value with E. coli 25922 [8] turned out to be 0.10 mM; with E. coli 5 ESBL [9], 0.30 mM; with P. aeruginosa 27853 [10], 0.50 mM; in the assay on P. aeruginosa 9027 [11] it was 0.50 mM; with MRSA [12] it was 0.10 mM; in the assay with S. aureus 25923 [13], 0.03 mM. This compound had an MBEC value in the assay on S. aureus 6538 [14] of 0.03 mM.
As to `CC(=O)[O-].CC(=O)[O-].Cc1cc(-c2ccccc2)nc2ncnn12.[Cu+2]` [[Cu(pmtp)(CH3COO)2]·0.5H2O], in [15], the Antiproliferative effect result is listed as “dose-dependent antiproliferative effect”.
As to `c1ccc(-c2ccccn2)nc1` [bpy, 2,2′-bipyridine], the minimal inhibitory concentration (MIC) against E. coli 25922 [1] (Escherichia coli, 25922, 24 h) amounted to 4 mM (≈ 625 µg/mL); in the assay with E. coli 5 ESBL [2] (Escherichia coli, 5ESBL, 24 h) it was 4 mM (≈ 625 µg/mL); in the assay with P. aeruginosa 27853 [3] (Pseudomonas aeruginosa, 27853, 24 h), 8 mM (≈ 1250 µg/mL); with P. aeruginosa 9027 [4] (Pseudomonas aeruginosa, 9027, 24 h) it was 4 mM (≈ 625 µg/mL); with MRSA [5] (Staphylococcus aureus, 24 h) it was 8 mM (≈ 1250 µg/mL); against S. aureus 25923 [6] (Staphylococcus aureus, 25923, 24 h) it was 8 mM (≈ 1250 µg/mL). Besides, in the assay on S. aureus 6538 [7] (Staphylococcus aureus, 6538, 24 h), it took 8 mM (≈ 1250 µg/mL) to inhibit growth (MIC). Besides, the MBEC value is reported as 8.00 mM in the assay on E. coli 25922 [8]; 8.00 mM in the assay with E. coli 5 ESBL [9]; 8.00 mM with P. aeruginosa 27853 [10]; 4.00 mM in the assay on P. aeruginosa 9027 [11]; 8.00 mM in the assay on MRSA [12]; 4.00 mM with S. aureus 25923 [13]. Further, the MBEC value in the assay with S. aureus 6538 [14] was 8.00 mM.
Consider `c1cnc2c(c1)ccc1cccnc12` [phen, 1,10-phenanthroline], for which the MIC in the assay on E. coli 25922 [1] (Escherichia coli, E. coli 25922, 24 h at 37 °C, read-out: MIC) is 3.5 mM (≈ 631 µg/mL); in the assay on E. coli 5 ESBL [2] (Escherichia coli, E. coli 5 ESBL, 24 h at 37 °C, read-out: MIC), 3.5 mM (≈ 631 µg/mL); in the assay with P. aeruginosa 27853 [3] (Pseudomonas aeruginosa, P. aeruginosa 27853, 24 h at 37 °C, read-out: MIC), 7 mM (≈ 1260 µg/mL); in the assay on P. aeruginosa 9027 [4] (Pseudomonas aeruginosa, P. aeruginosa 9027 (multi-drug-resistant), 24 h at 37 °C, read-out: MIC), 3.5 mM (≈ 631 µg/mL); with MRSA [5] (Staphylococcus aureus, 24 h at 37 °C, read-out: MIC) it was 7 mM (≈ 1260 µg/mL); in the assay with S. aureus 25923 [6] (Staphylococcus aureus, S. aureus 25923, 24 h at 37 °C, read-out: MIC), 7 mM (≈ 1260 µg/mL). Moreover, the MIC in the assay with S. aureus 6538 [7] (Staphylococcus aureus, S. aureus 6538, 24 h at 37 °C, read-out: MIC) was 7 mM (≈ 1260 µg/mL). Also, the MBEC value was 7.00 mM with E. coli 25922 [8]; 3.50 mM in the assay with E. coli 5 ESBL [9]; 7.00 mM in the assay with P. aeruginosa 27853 [10]; 3.50 mM in the assay on P. aeruginosa 9027 [11]; 7.00 mM with MRSA [12]; 7.00 mM in the assay with S. aureus 25923 [13]. For the same compound, in the assay on S. aureus 6538 [14], the MBEC value amounted to 7.00 mM.
For the compound {[Cu(bpy)2(μ2OClO3)]·ClO4}n [CuBP], the MIC with E. coli 25922 [1] (E. coli 25922, 24 h at 37 °C) amounted to 0.54 mM; in the assay on E. coli 5 ESBL [2] (E. coli 5 ESBL, 24 h at 37 °C), 0.54 mM; with P. aeruginosa 27853 [3] (setting [16]), 1.09 mM; against P. aeruginosa 9027 [4] (setting [17]), 1.09 mM; in the assay with MRSA [5] (24 h at 37 °C), 0.27 mM; in the assay with S. aureus 25923 [6] (S. aureus 25923, 24 h at 37 °C), 0.27 mM. The compound also showed an MIC in the assay on S. aureus 6538 [7] (S. aureus 6538, 24 h at 37 °C) of 0.27 mM. For the same compound, the MBEC value worked out at 0.54 mM with E. coli 25922 [8]; 0.54 mM with E. coli 5 ESBL [9]; 1.09 mM in the assay on P. aeruginosa 27853 [10]; 1.09 mM with P. aeruginosa 9027 [11]; 0.27 mM in the assay with MRSA [12]; 0.14 mM with S. aureus 25923 [13]. Besides, in the assay with S. aureus 6538 [14], the MBEC value was found to be 0.14 mM.
